Experimental data from patent publication US8796264B2, “2-piperazin-1-yl-4H-1,3-benzothiazin-4-one derivatives and their use for the treatment of mammalian infections” (Ecole Polytechnique Federale de Lausanne (EPFL), priority 2010, dated 2014).
Values after ≈ are worked out from the molar mass of the structure shown.

Assays:
M. tuberculosis H37Rv = assay: In vitro inhibitory activity, resazurin reduction assay (MIC99); assay type: cell-based, Mycobacterium tuberculosis; conditions: strain not stated
[1] = test system: M. tuberculosis strain H37Rv; assay: In vivo efficacy in the acute murine TB model; set-up: species or system mice
[2] = test system: M. tuberculosis strain H37Rv; assay: In vivo efficacy in the chronic murine TB model; set-up: species or system mice; conditions: INH 25 mg/kg
[3] = Intrinsic clearance in liver microsomes; conditions: 1 μg/mL with 0.1 mg microsomes, HPLC
Experimental: Next, PBTZ169 and BTZ043 were incubated at a concentration of 1 μg/mL with 0.1 mg of human or mouse liver microsomes (Invitrogen) in order to measure their intrinsic clearance. The relative amounts of the original compound remaining over time were determined by HPLC.

A549 cells = assay: Cytotoxicity TC50, resazurin reduction assay; assay type: cell-based, human; conditions: 72 h incubation
Experimental: (§1) The selectivity index (SI) of a compound provides a good indication of the potential tolerability of a drug candidate. […] The TC50 of PBTZ169 and BTZ043 were established using two human cell lines, the hepatocyte line HepG2 and the pneumocyte line A549, using the resazurin reduction assay after incubation with varying amounts of the compounds for 72 h. […] The respective MICs were 1 and 2 ng/ml for PBTZ169 and BTZ043. […] In clinical terms, PBTZ169 should be safer and better tolerated than BTZ043.

HepG2 cells = assay: Cytotoxicity TC50, resazurin reduction assay; assay type: cell-based, human; conditions: 72 h incubation
Experimental: as §1

[4] = test system: NfnB-overproducing mutant MN39; assay: Susceptibility of the NfnB-overproducing mutant MN39; assay type: cell-based, Mycobacterium smegmatis; conditions: M. smegmatis NfnB-overproducing mutant
Text: A second resistance mechanism to BTZ043 has been described in Mycobacterium smegmatis due to overproduction of the nitroreductase NfnB (Manina, G., et al. Mol Microbiol 2010. epub 2010/07/14).

## C[C@H]1COC2(CCN(c3nc(=O)c4cc(C(F)(F)F)cc([N+](=O)[O-])c4s3)CC2)O1 [BTZ043, 2-[(2S)-2-methyl-1,4-dioxa-8-azaspiro[4.5]dec-8-yl]-8-nitro-6-(trifluoromethyl)-4H-1,3-benzothia-zin-4-one, reference compound]
M. tuberculosis H37Rv
  MIC used for the selectivity index: 0.002 µg/mL
[1]; 4 weeks treatment, intragastric 5 times a week, compounds and BTZ043 50 mg/kg, isoniazid 25 mg/kg
  Log of CFU lungs: 4.78
[1]; compounds and BTZ043 50 mg/kg, isoniazid 25 mg/kg
  Medium longevity (days) M ± SEM: Alive at sacrifice
[1]; treatment for prescribed time
  Result of treatment, macroscopic condition of the lungs: marked improvement
[2]
  Efficacy in reducing CFU compared to INH: slightly inferior to INH
[3]
  Intrinsic Clearance (Clint), Human liver microsomes: 16.2 μL/min/mg of protein
  Intrinsic Clearance (Clint), Mouse liver microsomes: 10.3 μL/min/mg of protein
A549 cells
  TC50 against A549 cells: 16.3 µg/mL (≈ 37.8 µM)
HepG2 cells
  TC50 against HepG2 cells: 6.3 µg/mL (≈ 14.6 µM)
[4]
  Increase in the MIC for MN39 relative to the wild type parental strain: 6 fold
